Experimental data published in patent US8318186B2, “Use of at least a fatty ester for preparing a composition designed to inhibit 5-α-reductase activity, in pharmacology, in particular dermatology, in cosmetics and as food additive” (Laboratoires Expanscience, priority 2000, dated 2012).
Values joined by “and” are separate entries in the source; they are usually repeats but may differ in a detail not shown here. Identical values can stand only once. Marks after values point to notes of the source that are not given here.

Tested on: 5α-reductase
Experiment: Fatty acid esters on 5α-reductase activity, conversion of testosterone to 5α-dihydrotestosterone in normal human dermal fibroblast cultures (Example 4)
Format: cell-based
Parameters: key to group by 5α-reductase inhibitory activity: group A with the highest inhibitory activity; group B with an intermediate inhibitory activity
Settings: for inhibition of the 5α-reductase activity: Example 4, p<0.05; for 5α-DHT formed per culture well, mean / 5α-DHT formed per culture well, single well: after 24 of incubation, DMSO 0.1% (v/v); for 5α-DHT formed per culture well, single well: single replicate
Description: The fibroblast culture medium (FCM) consisted of MEM/M199 (3:1, v/v) supplemented with penicillin (50 IU/ml), streptomycin (50 μg/ml), sodium bicarbonate (0.2%, w/v) and FCS (10%, v/v).
The assay system consisted of normal human dermal fibroblasts cultured as a monolayer. The fibroblasts were isolated from a residue from abdominal plastic surgery performed on a person (subject BIOPREDIC No. I0013). The cells were used at the fifth passage; they were cultured until the monolayers were confluent in FCM medium at 37° C. in a humid atmosphere containing 5% CO2.
The fibroblast incubation medium (FIM) consisted of FCM supplemented with tritiated testosterone (1.6×10^−7 M, that is 6.32 μCi/ml) and nonradiolabeled testosterone (3.84×10^−6 M)
The test products and finasteride were taken up in DMSO before being diluted in the incubation medium. […]
The fibroblast cultures were preincubated in the presence of the test products or of the reference product for 2 hours before adding the substrate, testosterone. For this step, the test products and the reference product were prepared in the FCM medium.
After preincubation, the fibroblast cultures were incubated in the presence of the test products or of the reference product prepared in the FIM medium for 22 hours at 37° C. in a humid atmosphere containing 5% CO2. Control cultures were incubated in the FIM medium in the absence of test products and of reference product. […]
Each experimental condition was tested in triplicate.
After the incubation period, the cells were subjected to the action of ultrasound in the FIM medium. The cellular lysates thus obtained were extracted with dichloromethane. After evaporation, the dry residues were taken up in methanol and were deposited on 60F254 silica plates (MERCK, reference 5554).
The migration solvent was a mixture of dichloromethane and ether (7:3, v/v) At the end of the migration, the silica plates were read using a BERTHOLD radioactivity scanner.
The metabolizing of testosterone to 5α-dihydro-testosterone under the various experimental conditions was calculated: the results (areas of the 5α-dihydrotestosterone peaks counted by the BERTHOLD scanner) were expressed in pmol of 5α-dihydro-testosterone formed per culture well. They were also expressed as a percentage of the 5α-reductase activity present in the “DMSO control” group.
The groups of data (control group and treated groups) were treated by a one-way analysis of variance (ANOVA 1, p<0.05), followed by a DUNNETT's test (p<0.05). The effect of the test products and of the reference product was compared with the “DMSO control” group. The effects of the test products were compared to each other by a two-way analysis of variance (ANOVA 2, p<0.05, factor 1=concentration and factor 2=treatment).
The same materials and methods are used as in example 3 above.
It was proposed to evaluate the effect of fatty acid esters on the 5α-reductase activity. An in vitro model of normal human dermal fibroblast cultures was selected. The products tested were chosen from the group of fatty acid esters varying in the length and the functionality of the fatty chain, and the nature of the alkoxy group. These esters are the following: methyl oleate, methyl linoleate, methyl stearate, methyl laurate, methyl undecylenate, butyl oleate, oleyl oleate and methyl ricinoleate.

## CCCCCCCC/C=C\CCCCCCCC(=O)OC [Methyl oleate, methyl oleate]
1 μg/ml
  5α-reductase activity as percentage of the “DMSO 0.1% (v/v)” group: 71 percentage of the “DMSO 0.1% (v/v)” group
  inhibition of the 5α-reductase activity: 29%
  5α-DHT formed per culture well, mean: 8.12* +/− pmol of 5α-DHT formed/culture well
  5α-DHT formed per culture well, single well: 8.24 pmol of 5α-DHT formed/culture well and 8.28 pmol of 5α-DHT formed/culture well and 7.84 pmol of 5α-DHT formed/culture well
10 μg/ml
  5α-reductase activity as percentage of the “DMSO 0.1% (v/v)” group: 58 percentage of the “DMSO 0.1% (v/v)” group
  inhibition of the 5α-reductase activity: 42%
  5α-DHT formed per culture well, mean: 6.61* +/− pmol of 5α-DHT formed/culture well
  5α-DHT formed per culture well, single well: 6.28 pmol of 5α-DHT formed/culture well and 6.44 pmol of 5α-DHT formed/culture well and 7.12 pmol of 5α-DHT formed/culture well
100 μg/ml
  5α-reductase activity as percentage of the “DMSO 0.1% (v/v)” group: 64 percentage of the “DMSO 0.1% (v/v)” group
  inhibition of the 5α-reductase activity: 26%
  5α-DHT formed per culture well, mean: 7.24* +/− pmol of 5α-DHT formed/culture well
  5α-DHT formed per culture well, single well: 7.52 pmol of 5α-DHT formed/culture well and 7.00 pmol of 5α-DHT formed/culture well and 7.20 pmol of 5α-DHT formed/culture well
Tested at 1, 10 and 100 μg/ml
  group by 5α-reductase inhibitory activity: A
